In patent publication US5719151A, “Substituted benzene compounds” (priority 1990, dated 1998):
Each block holds one compound with its values, some of them ahead of it.

Experiments:
[1] = biological target: T1, poly(ADP-ribose)polymerase (Homo sapiens, UniProt P09874); experiment: Determination of inhibitory effect on poly(ADP-ribose)polymerase (enzyme activity, Ki, Km); format: biochemical; conditions: for Ki: poly(ADP-ribose)polymerase, read-out: Ki (Inhibition Constant); for inhibition at 5 µM / inhibition at 1 µM / inhibition at 2.5 µM: read-out: Inhibitor Activity (%)
Description: The enzyme activity was assayed by standard procedures (Murray, B. et al., Mutation Research (1986) 165:191-198). This reference also describes the estimation of the Km (Michaelis Constant) values. The estimation of the Ki (inhibitory constant) values was performed by calculating the Km value in the presence or absence of known concentrations of the enzyme inhibitor. Standard biochemical calculations were then used to calculate the Ki value. The smaller K1 values indicate stronger inhibition. The degree of enzyme inhibition shown in the Table was estimated by measuring the enzyme activity in the presence and absence of the indicated concentrations of inhibitor.

[2] = test system: nuclear poly(ADP-Ribose)polymerase; conditions: Oikawa 1980; Lindahl-Kiessling & Shall 1987; cited from earlier work
[3] = biological target: T1, poly(ADP-ribose)polymerase; conditions: Farzeneh 1988, cited from earlier work
[4] = biological target: T1, poly(ADP-ribose)polymerase; experiment: Formation of covalent compounds (with the enzyme); format: biochemical; conditions: for covalent compound with the enzyme: specific covalent inhibition
[5] = test system: Trypanosoma brucei rhodesiense; experiment: Growth of Trypanosoma brucei rhodesiense in axenic culture (growth inhibition); format: cell-based
Description: 1. TRYPANOSOMES: Stabilates of two clones, GUP 2889 and GUP 2814 were used.
Prior to propagation in vitro cell free culture conditions the parasites from stabilates were expanded in CD1 (8-9 week old) female mice. Infected mouse blood obtained by cardiac puncture in EMEM* with 20 U/ml heparin was used for the preparation of blood smears for immunofluorescence analysis.
Antibody mediated lysis of a specific VAT of bloodstream form trypanosomes was performed by incubating an appropriate aliquot of a recently prepared trypanosome suspension at room temperature for 1 hour, in appropriately diluted specific antibody and guinea pig complement. The trypanosomes were observed and counted with inverted phase-contrast microscopy at a magnification of 150× to check for viability and to observe lysed trypanosomes, which appeared stumpy and vacuolated.
Cultures were initiated with aliquots of the above prepared trypanosome suspension. Duplicate T25 flasks, with 10 ml of medium were prepared for each experimental parameter examined. In each experiment the trypanosome density was determined at the initiation of the culture and at the end of the axenic culture period (usually after 18-24 hours) using a Neubaurer haemocytometer.
The instantaneous rate of switching/cell/generation, σi, has been calculated. These values of σ are estimates of the per capita rate for switching to minor VATs. However, these estimates have been made in populations manipulated to consist of a major VAT, the prevalence of which is much higher than that of minor VATs; switching from minor to major VATs has therefore been assumed to be negligible, as has interswitching between minor VATs. Growth rates, r, have been expressed as population doubling times Td, where Td=loge2/r. Switching rates values are presented in the tables as finite, of, rate estimates.
Two clones of Trypanosoma brucei rhodesiense, GUP 2889 and […] were initiated in culture with viable trypanosomes after in vitro trypanolysis of heterotype VAT 1.22 with GUPM 27.1 monoclonal antibody. Viable populations of these trypanosomes were incubated with various concentrations of the poly(ADP-Ribose)polymerase inhibitors. The effect of each concentration of inhibitor was tested in duplicate in T25 culture flasks set up for the axenic culture inhibition experiments. Growth was monitored after 24 hours of incubation at 37° C. in 4-5% CO2 in air. Relative growth inhibition and frequency of antigenic switching of were calculated.
In this assay a continuously growing bloodstream form trypanosome population was incubated in serial inhibitor dilutions in T25 culture flasks using an inoculum of 2×10^4 ·1×10^5 trypanosomes per ml. After an incubation period of 24-48 hours in axenic culture at 37° C. in a 4-5% CO2 incubator, trypanosomes were counted using a haemocytometer and growth inhibition was determined based on the number of generations (kt) of inhibitor treated cultures compared to controls. […] Growth is reduced by up to 17% when 3-N-formylluminol(3-N-FL) is present in the concentration range of 50-400 μM, Table 7.

[6] = biological target: T1, poly(ADP-ribose)polymerase; conditions: X-ray or bleomycin exposure; cited from earlier work
[7] = test system: NC(=O)c1ccc[n+]([C@@H]2O[C@H](COP(=O)([O-])OP(=O)(O)OC[C@H]3O[C@@H](n4cnc5c(N)ncnc54)[C@H](O)[C@@H]3O)[C@@H](O)[C@H]2O)c1; experiment: Determination of inhibitory effect on poly(ADP-ribose)polymerase (enzyme activity, Ki, Km); format: biochemical; conditions: other: same assay as Table 5

T1 sequence (P09874 whole entry): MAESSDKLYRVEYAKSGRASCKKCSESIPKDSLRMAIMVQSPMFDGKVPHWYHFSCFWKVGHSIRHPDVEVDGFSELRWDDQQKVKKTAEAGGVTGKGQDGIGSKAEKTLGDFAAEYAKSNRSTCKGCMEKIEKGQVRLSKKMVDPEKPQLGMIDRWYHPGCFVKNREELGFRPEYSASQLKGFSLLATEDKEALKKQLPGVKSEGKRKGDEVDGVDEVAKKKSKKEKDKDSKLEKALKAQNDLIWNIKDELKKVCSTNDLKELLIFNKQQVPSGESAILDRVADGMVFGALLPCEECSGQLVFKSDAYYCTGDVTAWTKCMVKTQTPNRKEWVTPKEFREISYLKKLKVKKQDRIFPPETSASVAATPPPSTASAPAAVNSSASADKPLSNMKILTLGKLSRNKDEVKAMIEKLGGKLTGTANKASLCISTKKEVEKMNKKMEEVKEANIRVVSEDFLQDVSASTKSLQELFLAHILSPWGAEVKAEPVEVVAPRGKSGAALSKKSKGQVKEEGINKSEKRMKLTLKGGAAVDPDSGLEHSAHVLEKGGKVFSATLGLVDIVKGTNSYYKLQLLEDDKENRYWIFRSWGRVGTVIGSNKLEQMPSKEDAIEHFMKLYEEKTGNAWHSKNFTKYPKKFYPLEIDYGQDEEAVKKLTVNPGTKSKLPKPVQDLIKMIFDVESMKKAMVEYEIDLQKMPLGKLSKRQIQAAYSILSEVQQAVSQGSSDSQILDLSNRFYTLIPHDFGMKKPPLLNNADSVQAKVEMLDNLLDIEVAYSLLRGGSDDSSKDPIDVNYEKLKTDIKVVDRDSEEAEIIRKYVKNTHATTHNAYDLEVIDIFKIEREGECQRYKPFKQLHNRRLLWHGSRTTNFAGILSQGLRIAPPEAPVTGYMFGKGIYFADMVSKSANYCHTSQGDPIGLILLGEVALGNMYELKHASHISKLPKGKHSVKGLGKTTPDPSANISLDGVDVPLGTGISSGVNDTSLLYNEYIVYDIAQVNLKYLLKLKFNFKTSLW

Ki [1]: 3200 ± 410 nM
Compound: CC(=O)Nc1cccc(C(N)=O)c1 [3-acetylaminobenzamide, reference compound]

Compound: NC(=O)c1cccc(N)c1 [3-aminobenzamide]
spontaneous sister chromatid exchanges [2]: large increase in spontaneous sister chromatid exchanges

Compound: COc1cccc(C(N)=O)c1 [3-methoxybenzamide]
integration of foreign DNA into the genome ([3]; non-homologous/illegitimate DNA recombination): blocked the integration of foreign DNA into the genome | uptake and expression of foreign DNA ([3]; introduced via plasmids): not affected

Ki [1]: 2490 ± 300 nM
Compound: CCC(=O)Nc1cccc(C(N)=O)c1 [3-propionylaminobenzamide, reference compound]

Compound: C=CC(=O)Nc1cccc(C(N)=O)c1 [Compound 4, 3-propenoylaminobenzamide]
covalent compound with the enzyme [4]: act by forming a covalent compound with the enzyme specifically and thus inhibit the enzyme

Compound: NC(=O)c1cccc(NC(=O)CCCl)c1 [Compound 7]
covalent compound with the enzyme [4]: act by forming a covalent compound with the enzyme specifically and thus inhibit the enzyme

inhibition at 5 µM [1]: 61%
Compound: NC(=O)Nc1cccc(C(N)=O)c1 [Compound 8, 3-ureidobenzamide]

inhibition at 5 µM [1]: 61%
Compound: CNC(=O)Nc1cccc(C(N)=O)c1 [Compound 9, 3-methylureidobenzamide]

ability to form covalent compounds [4]: form covalent compounds | enzyme inhibition (in words) [1]: not enzyme inhibitors
Compound: C=CC(=O)Nc1cccc(C(=O)O)c1 [Compound 12, 3-propenoylaminobenzoic acid]

Compound: NC(=O)c1cccc(NC(=O)CCl)c1 [Compound 14, 3-chloroacetylaminobenzamide]
covalent compound with the enzyme [4]: act by forming a covalent compound with the enzyme specifically and thus inhibit the enzyme

Compound: NC(=O)c1cccc(NC(=O)CBr)c1 [Compound 15, 3-bromoacetylaminobenzamide]
covalent compound with the enzyme [4]: act by forming a covalent compound with the enzyme specifically and thus inhibit the enzyme

Compound: NC(=O)c1cccc(NC(=O)CCBr)c1 [Compound 16]
covalent compound with the enzyme [4]: act by forming a covalent compound with the enzyme specifically and thus inhibit the enzyme

Compound: CN(N=O)C(=O)Nc1cccc(C(N)=O)c1 [Compound 19, 3(N-methyl,N-nitroso ureido)benzamide]
covalent compound with the enzyme [4]: act by forming a covalent compound with the enzyme specifically and thus inhibit the enzyme

Compound: CN(N=O)C(=O)Nc1ccc(C(N)=O)cc1 [Compound 20, 4(N-methyl,N-nitroso ureido)benzamide]
ability to form covalent compounds [4]: form covalent compounds | enzyme inhibition (in words) [1]: not enzyme inhibitors

Compound: CCOC(=O)c1cccc(NC(=O)N(C)N=O)c1 [Compound 21, Ethyl,3-(N-methyl,N-nitrosoureido)benzoate]
ability to form covalent compounds [4]: form covalent compounds | enzyme inhibition (in words) [1]: not enzyme inhibitors

Compound: O=CNc1cccc2c(=O)[nH][nH]c(=O)c12 [Compound 22, 5-formylamino-2,3-dihydro-1,4-phthalazinedione]
inhibition at 1 µM [1]: 54% | inhibition at 2.5 µM [1]: 71% | Ki [1]: 518 ± 40 nM | growth reduced by up to ([5]; 50-400 μM): up to 17% | activity at 50 µM ([5]; Trypanosoma brucei, RHODESIENSE, 50 μM, n = 8, control 1.00, read-out: Relative Growth Rate (S.D., n)): 121 ± 13% | activity at 100 µM ([5]; Trypanosoma brucei, RHODESIENSE, 100 μM, n = 8, control 1.00, read-out: Relative Growth Rate (S.D., n)): 91 ± 22% | activity at 250 µM ([5]; Trypanosoma brucei, RHODESIENSE, 250 μM, n = 8, control 1.00, read-out: Relative Growth Rate (S.D., n)): 83 ± 42% | activity at 400 µM ([5]; Trypanosoma brucei, RHODESIENSE, 400 μM, n = 4, control 1.00, read-out: Relative Growth Rate (S.D., n)): 85 ± 4%

inhibition at 5 µM [1]: 32%
Compound: N=C(N)Nc1cccc(C(N)=O)c1 [Compound 26, 3-(guanidino)benzamide]

inhibition at 1 µM [1]: 47% | inhibition at 2.5 µM [1]: 71% | inhibition at 5 µM [1]: 82%
Compound: O=c1[nH]nc(O)c2cccc(O)c12 [Compound 27, 1,5-dihydroxy-3-hydro-4-phthalazinone]

Compound: NC(=O)c1cccnc1 [nicotinamide]
recovery of the damaged cells [6]: inhibit recovery of the damaged cells

Compound: poly(ADP-ribose)polymerase (Homo sapiens)
Km [7]: 100 ± 13.7 µM
